Our source for the TGI values is PubChem BioAssay (NCI).

Molecules are shown by their SMILES.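 Following 48 hours of exposure in 96-well plates, responses at five concentrations were used to interpolate endpoints linearly. TGI marks complete inhibition of growth.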 Where only a bound is given, the exact number is not on record here.

Some test systems named below: MCF7 breast; NCI-H226 lung; HS 578T breast; SF-539 CNS; CCRF-CEM leukemia; SK-MEL-2 melanoma; TK-10 renal; EKVX NSCLC; OVCAR-5 ovarian; UACC-257 melanoma.
What all share (test): NCI anticancer screen, dose series, 48 h

Take `COc1cc(/C=C/C(=O)OCC23CC[C@@]4(C(=O)O)CCC(C)[C@H](C)C4C2=CCC2[C@@]4(C)CC[C@H](O)C(C)(C)C4CC[C@]23C)ccc1O` (stereo not given in full): the TGI was found to be 48.1 µM in the test with MCF7 breast; 71.8 µM in the test with NCI-H226 lung; 17.1 µM in the test with HS 578T breast; 31.4 µM in the test on SF-539 CNS; 22.3 µM with CCRF-CEM leukemia; 47.5 µM with SK-MEL-2 melanoma. For the same compound, the TGI was found to be 8.9 µM with TK-10 renal, 33.1 µM in the test on EKVX NSCLC, 46.4 µM with OVCAR-5 ovarian and 39.4 µM in the test with UACC-257 melanoma.
For `Nc1nc(N)c2ncn(CC3CCC(CO)C3)c2n1` (stereo not given), the TGI in the test on MCF7 breast, in the test with NCI-H226 lung, with HS 578T breast, in the test with SF-539 CNS, in the test with CCRF-CEM leukemia and in the test on SK-MEL-2 melanoma was over 100 µM each time. Also, the TGI in the test with TK-10 renal, in the test with EKVX NSCLC, in the test with OVCAR-5 ovarian and with UACC-257 melanoma was over 100 µM throughout.
Take `c1ccc(C2=NC3(CCCCC3)N(c3nc4ccccc4s3)N2)nc1`: the TGI with MCF7 breast was over 100 µM; in the test with NCI-H226 lung, 65.6 µM; in the test on HS 578T breast it was over 100 µM; with SF-539 CNS, over 100 µM; in the test on CCRF-CEM leukemia it was 87.2 µM; in the test on SK-MEL-2 melanoma it was 42.6 µM. The TGI in the test with TK-10 renal was 52.8 µM; in the test with EKVX NSCLC, over 100 µM; with OVCAR-5 ovarian, over 100 µM; in the test on UACC-257 melanoma, 43.4 µM.
